The values below come from patent US7291461B2, “Methods for identifying small molecules that modulate premature translation termination and nonsense mRNA decay” (PTC Therapeutics, Inc., priority 2002, dated 2007).

In assay [1] the test system is dystrophin. The assay is described as follows: dystrophin immunofluorescence of tibialis anterior muscle of mdx mice treated by Alzet osmotic pumps. The class given is in vivo, mouse. The following applies: tissue exposure approximately 200 μM, osmotic pump. The method, then:
FIG. 10A-10F. Immunohistochemistry of muscle cross-sections to view dystrophin. […] Muscle from untreated mdx mice (panel E) or from cross sections not treated with primary antibody (panel F) show only minimal staining.
As previously described (Barton-Davis et al., 1999, J Clin Invest. 104(4):375-381), compound was delivered by Alzet osmotic pumps implanted under the skin of anesthetized mice. Two doses of Compound A were administered. Gentamicin served as a positive control and pumps filled with solvent only served as the negative control. Pumps were loaded with appropriate compound such that the calculated doses to which tissue was exposed were 10 μM and 20 μM. The gentamicin concentration was calculated to achieve tissue exposure of approximately 200 μM. In the initial experiment, mice were treated for 14 days, after which animals were anesthetized with ketamine and exsanguinated. The tibialis anterior (TA) muscle of the experimental animals was then excised, frozen, and used for immunofluorescence analysis of dystrophin incorporation into striated muscle. The presence of dystrophin in TA muscles was detected by immunostaining, as described previously (Barton-Davis et al., 1999, J Clin Invest. 104(4):375-381; see mdx primary cells in Section 7.8 supra).

In assay [2] the test system is dystrophin. Briefly: dystrophin immunostaining in mdx mouse primary skeletal muscle cultures. The class given is cell-based. The following applies: 200 μM. The method, then: FIG. 9. Immunohistochemistry of myotubes from primary cell culture from mdx muscle. The presence of dystrophin was detected by mAb to the COOH-terminus of dystrophin ([…]) followed by a rhodamine-conjugated anti-mouse IgG. […] Little dystrophin was detected in untreated mdx myotubes (right).
Mouse primary skeletal muscle cultures derived from 1-day old mdx mice were prepared as described previously (Barton-Davis et al., 1999, J Clin Invest. 104(4):375-381). Cells were cultured for 10 days in the presence of Compound A (20 μM). Culture medium was replaced every four days and the presence of dystrophin in myoblast cultures was detected by immunostaining as described previously (Barton-Davis et al., 1999, J Clin Invest. 104(4):375-381). A primary monoclonal antibody to the C-terminus of the dystrophin protein (F19A12) was used undiluted and rhodamine conjugated anti-mouse IgG was used as the secondary antibody. The F19A12 antibody will detect the full-length protein produced by suppression of the nonsense codon. Staining was viewed using a Leica DMR micropscope, digital camera, and associated imaging software at the University of Pennsylvania.

The subject of assay [3] is luciferase RNA containing a UGA premature termination codon. Briefly: in vitro translation nonsense suppression assay in HeLa cell extract. The class given is biochemical, human. The following applies: FIG. 4. As for the experimental part:
This Example describes a method of preparing a cell extract to perform in vitro translation reactions to monitor nonsense suppression or to produce proteins in vitro. This method is different from other methods used to prepare translation extracts for several reasons.
HeLa S3 cells were grown to a density of 10^6 cells/ml in DMEM; 5% CO2, 10% FBS, 1×P/S in a spinner flask. Cells were harvested by spinning at 1000×g. Cells were washed twice with phosphate buffered saline. The cell pellet sat on ice for 12 to 24 hours before proceeding. By letting the cells sit on ice, the activity of the extract is increased two-fold. The length of time on ice can range from 0 hours to 1 week. The cells were resuspended in 1.5 volumes (packed cell volume) of hypotonic buffer (10 mM HEPES (KOH) pH 7.4; 15 mM KCl; 1.5 mM Mg(OAc)2; 0.5 mM Pefabloc (Roche); 2 mM DTT). Cells were allowed to swell for 5 minutes on ice and dounce homogenized with 10 to 100 strokes using a tight-fitting pestle. The cells were spun for 10 minutes at 12000×g at 4° C. in a Sorvall SS-34 rotor. […]
Further, in the presence of the aminoglycoside gentamicin, nonsense suppression activity (as measured by the amount of luciferase activity produced from a luciferase RNA containing a UGA premature termination codon) is increased 2 to 3 fold above untreated extracts (see FIG. 4). […]

Assay [4] deals with UGA, UAA or UAG nonsense alleles of luciferase. Briefly: nonsense suppression in cells transiently transfected with luciferase nonsense alleles in each codon context. Format: cell-based. The following applies: 3 mg/ml, overnight. The method, then:
Cells were transiently transfected with plasmids harboring the UGA, UAA or UAG nonsense alleles of luciferase in each codon context (UGAA, UGAC, UGAG, UGAU, UAGA, UAGC, UAGG, UAGU, UAAA, UAAC, UAAG, and UAAU) then the cells were treated overnight with Compound A, and gentamicin. The following day, the level of suppression was determined by measuring the amount of luminescence produced. The fold suppression above control cells treated with solvent was calculated and is numerically reported.

Assay [5] relates to mRNA containing a UGA premature termination codon. The assay is described as follows: biochemical assay: rabbit reticulocyte lysate and nonsense-containing luciferase reporter mRNA. An excerpt:
(§1) Two assays were developed for use in high throughput screens to identify small molecules that promote nonsense suppression. Each assay utilized luciferase because it is a functional reporter gene assay (light is only produced if the protein is functional) and it is extremely sensitive (Light intensity is proportional to luciferase concentration in the nM range). The first assay was a cell-based luciferase reporter assay and the second was a biochemical assay consisting of rabbit reticulocyte lysate and a nonsense-containing luciferase reporter mRNA. In the cell-based assay, a luciferase reporter construct containing a UGA premature termination codon was stably transfected in 293T Human Embryonic Kidney cells. In the biochemical assay, mRNA containing a UGA premature termination codon was used as a reporter in an in vitro translation reaction using rabbit reticulocyte lysate supplemented with tRNA, hemin, creatine kinase, amino acids, KOAc, Mg(OAc)2, and creatine phosphate. […] Synthetic mRNA was prepared in vitro using the T7 promoter and the MegaScript in vitro transcription kit (Ambion).
(In a reporter assay the amount or activity of a reporter protein is the signal.)

Assay [6] deals with luciferase reporter construct containing a UGA premature termination codon in 293T Human Embryonic Kidney cells. Briefly: cell-based luciferase reporter assay, stable cell line.
From the text: as §1
Compound A and Compound B increase the level of nonsense suppression in the biochemical assay three to four fold over untreated extracts. […]

Entries after “also recorded” stand apart in the source; their conditions may differ.

Turning to gentamicin, the “dystrophin in TA muscle (immunostaining)” value in the assay on dystrophin [1] was “positive staining for dystrophin”. Moreover, the “presence of full-length dystrophin in myotubes (immunostaining, C-terminus antibody)” value with dystrophin [2] was “full-length dystrophin protein is produced and localized to the muscle myotubes; also recorded: Dystrophin was present”. Moreover, the “nonsense suppression activity (luciferase activity from luciferase RNA containing a UGA premature termination codon) above untreated extracts” value in assay [3] is on record as 2 to 3 fold. The “fold suppression above control cells treated with solvent” value in assay [4] (context UAAA) worked out at 0.71 fold; in assay [4] (context UAAC) it was 2.32 fold; in assay [4] (context UAAG), 0.01 fold; in assay [4] (context UAAU) it was 0.92 fold; in assay [4] (context UAGA), 1.31 fold; in assay [4] (context UAGC), 2.16 fold. For the same substance, the “fold suppression above control cells treated with solvent” value was determined as 0.64 fold in assay [4] (context UAGG); 0.54 fold in assay [4] (context UAGU); 0.76 fold in assay [4] (context UGAA); 1.91 fold in assay [4] (context UGAC); 0.45 fold in assay [4] (context UGAG); 6.74 fold in assay [4] (context UGAU). Further, the “luciferase activity on addition of compound” value in assay [5] and in assay [6] was “increased luciferase activity” each time.
